Experimental data from US20100249193A1, “Nematicidal, Insecticidal and Acaricidal Active Ingredient Combinations Comprising Pyridyl-ethylbenzamides and Insecticides” (Bayer CropScience AG, priority 2009, published 2010).

Test system: Meloidogyne incognita
Test: Meloidogyne incognita test (MELGIN), gall formation on salad seedlings in sand
Format: in vivo
Conditions: 0% = galls equal to untreated control
Description: Meloidogyne incognita—Test (MELGIN)
To produce a suitable preparation of active compound, 1 part by weight of active compound is mixed with the stated amount of solvent, and the concentrate is diluted with emulsifier-containing water to the desired concentration.
Vessels are filled with sand, a solution of the active ingredient, a suspension containing eggs and larvae of Meloidogyne incognita and salad seeds. The salad seeds germinate and the seedlings grow. Galls develop on the roots.
After the specified period the nematicidal activity is determined on the basis of the percentage of gall formation. 100% means that no galls were found; 0% means that the number of galls found on the roots of the treated plants was equal to that in untreated control plants.

O=C(NCCc1ncc(C(F)(F)F)cc1Cl)c1ccccc1C(F)(F)F [Fluopyram, N-{2-[3-chloro-5-(trifluoromethyl)-2-pyridinyl]ethyl}-2-trifluoromethylbenzamide]
Gall-formation efficacy in % after 21 d (100% = no galls) (0.125 ppm): 56%

CNC(=O)c1cc(C#N)cc(C)c1NC(=O)c1cc(Br)nn1-c1ncccc1Cl [Cyazypyr, cyazypyr]
Gall-formation efficacy in % after 21 d (100% = no galls) (4 ppm): 6%
